# Test results from patent publication US20260227408A1, “Compositions and Methods for Modulation of Immune Responses” (Flagship Pioneering Innovations VI, LLC, priority 2022, published 2026).
# System: Peripheral Blood Mononuclear Cells
# Experiment: PBMC cytokine release by CBA, Activation format (peptide alone)
# Format: cell-based, human
# Design: key: X = a hit with significant activation or inhibition of relevant cytokine release
# Details: peptide applied to PBMCs alone; supernatant CBA after 24 hours
# Procedure: (§1) CBA (Cytometry) experiment looking at pro-inflammatory cytokines produced by PBMCs treated with secreted peptides.
# (§2) Peripheral Blood Mononuclear Cells were seeded+/−the T-cell activator […] and +/−peptides for 24-48 hours. Cytokines were measured from the supernatant after incubation by CBA Cytometer.
# (§3) Thawing PBMCs: PBMCs were thawed by pre-warming TexMACS media (Miltenyi Biotech) in 20 ml aliquots-1-50 ml conical per donor. After the media was warmed to 37° C., cells were removed from liquid nitrogen and brought to the tissue culture hood. For each donor, 1 ml of media from the warmed aliquot was added to the frozen vial and mixed up and down. The media plus thawed cells were then added back to the 50 ml conical. This was repeated until all the cells were thawed and added to the 50 ml tube. Continue with other donors if used. Spin cells for 5 min at 400×g. Supernatant was aspirated and cells resuspended at ~10*10^6 cells/ml (see vial for cell number).
# (§4) PBMC Plating: Frozen PBMCs from normal, healthy, human volunteers (StemCell Technologies) were thawed and plated at 250,000 cells/well. After PBMCs were thawed and resuspended at […], cells were then counted (Countess III, Thermo Scientific) and adjusted based on counts to […]. Take the number of PBMCs determined by number of wells for the experiment, for example, 10 wells would need 2.5*10^6 cells total or 0.250 ml. The cells needed for the experiment are then transferred to another conical tube. Warmed TexMACS media is added so that the final concentration is 250,000 cells/190 ul media, for example, 10 wells would need 1.9 ml (190 ul×10 wells) of media total minus 0.250 ml of cells (1.9 ml-0.250 ml) or 1.65 ml of media added to the 0.250 ml of cells. Add 190 ul of cells plus media to the 96 well U-bottom plate. Place in incubator until dilutions are made and ready.
# (§5) Peptide Dilutions: Ideally, all peptides should be at a starting concentration of at least 10 mM, especially for those in DMSO (ATCC) to reach a final concentration of 1 uM (H2O) or 0.5 uM (DMSO). Dilutions of all test articles should be made at 20× the final concentration, for example, a final concentration of 1 uM peptide would need to be made at 20 uM.
# (§6) Reagent Dilution: Dilutions are made in TexMACS media, enough for 10 ul/well in triplicate (30 ul of a 20×). Activator—CD3/CD28 (TransAct; Miltenyi Biotech) or cytokine will be at 21× and added after the 45-minute incubation with peptides. Be sure to include relevant controls—Positive: TransAct+Cells, Negative: Vehicle+Cells. Dilutions should also be made in a ultra-low binding plate (Corning).
# (§7) Assay Procedure: Peptide Treatment: Start assay by thawing the cells and plating in a 96 well, U-bottom tissue culture plate (Corning) as described above. Cell plates are placed in a tissue culture incubator (5% CO2, 37° C.). While cells are in the incubator, start making dilutions (optimally 1 hr or less) as described above. Cell plates are removed from the incubator and 10 ul of the 20× dilutions are added to the relevant wells. After the addition of inhibitors, cell plates are placed in the tissue culture incubator for 45 minutes. The plates are removed from the incubator and 10 ul of […] TransAct is added to the relevant wells*. Plates are then returned to the incubator and incubated for 24 hours. After 24 hours, plates are spun for 5 minutes at 400×g. * Activation: This assay can be run in two different formats—Activation and Inhibition. The procedure is the same except no TransAct is needed in the peptide wells for Activation. TransAct is only needed in the control wells. The purpose of this procedure is to determine the possible response from peptides alone.
# (§8) Cytometric BeadArray (CBA): After the spin, supernatants (~150 ul) are transferred to a new, ultra-low binding U-bottom plate. Supernatants are then frozen at −20° C. until thawed for CBA (BD) to determine levels of human IL-2, TNFa, IL-1b, IP-10, IL-10, and IFNg. […]
Molecule,Activation by Analyte IP-10,Activation by Analyte IL-10,Activation by Analyte IL-2,Activation by Analyte IL-1b
"SEQ ID NO: 37192: target protein of the Sequence Listing, applied as peptide to PBMCs (MVSHRKDWRRVNLRFSSCLLLSICLDDKPSADELCFWTDHGRSQLTCPSLGVSQGHARSS; listed as Homo sapiens)",X,–,–,–
"SEQ ID NO: 38042: target protein of the Sequence Listing, applied as peptide to PBMCs (MWWKTPCWWTPSTTATSSSAEARSCGRLLKSMAG; listed as Homo sapiens)",X,–,–,–
"SEQ ID NO: 35558: target protein of the Sequence Listing, applied as peptide to PBMCs (MTAFGLGIPTFLVMQPSGSQPRFPALTQNGVALVRTPLTSVYLRVRICRVLGPRSQPS; listed as Homo sapiens)",X,X,–,–
"SEQ ID NO: 33678: target protein of the Sequence Listing, applied as peptide to PBMCs (METSCSLWVSSELFCRSVKVFFCLLALHLSALPHSSWTQDKNLGLAGMVELK; listed as Homo sapiens)",X,–,–,–
"SEQ ID NO: 37375: target protein of the Sequence Listing, applied as peptide to PBMCs (MARPLSLAAAGAPDLLFTALCSLLIEAQPLRPFDLQVLGDPQPRARTP; listed as Homo sapiens)",–,–,X,–
"SEQ ID NO: 37047: target protein of the Sequence Listing, applied as peptide to PBMCs (peptide, listed as Homo sapiens) MMAQKSKFRVLFMSDPHGTAMPLTSAILESSRASLAAKQEDKCFTDIRNLKWKHFLEHTKQPP",X,–,–,–
"SEQ ID NO: 35480: target protein of the Sequence Listing, applied as peptide to PBMCs (peptide, listed as Homo sapiens) LRPRSAAFAPRYTRLVMRRSSRSFRLQCTGFPSSSAQSISAHLSNSMPSSLLTISRCPGMFAVRCPL",X,–,–,–
"SEQ ID NO: 33741: target protein of the Sequence Listing, applied as peptide to PBMCs (peptide, listed as Homo sapiens) MSYLPTNPPGSILTCWLGVSLGSHRSARGGSTIYGRLLPRRKDVWFSQAKDVPKYRGLLYLQS",X,–,–,–
"SEQ ID NO: 36902: target protein of the Sequence Listing, applied as peptide to PBMCs (peptide, listed as Homo sapiens) MQRLPAAFFRSFAAQGLGESVHINTPTSLSLRGRPFISSSGPGARARVTCAPCLHAARILCCFWRGLHR",X,–,–,–
"SEQ ID NO: 33169: target protein of the Sequence Listing, applied as peptide to PBMCs (peptide, listed as Homo sapiens) MCHKGWHGPGVPHHVAFTPCKARLRPATQCQAHSSPRRKMVQAGSIPLAAASGRLCLTHAGWWRGAS",X,–,–,–
"SEQ ID NO: 38393: target protein of the Sequence Listing, applied as peptide to PBMCs (peptide, listed as Homo sapiens) VALSLLTSQGRQRRAGPSTAFAALPATVATFSAMTESESLRTSRHADTALARVRRGAKFRGQARTRYCARARSHRFTPPSGA",X,–,–,–
"SEQ ID NO: 37477: target protein of the Sequence Listing, applied as peptide to PBMCs (peptide, listed as Homo sapiens) MSCGSRRGPSLASSLAWLQLQSGTRPFCSSSPPYFLSHGRRIPFSHPRKESALRATKEPRTHRTNTSLADLPSPAPAHL",–,–,–,X

# System: CD3/CD28 (TransAct) activated PBMCs
# Experiment: PBMC cytokine release by CBA, Inhibition format (peptide with CD3/CD28 TransAct activator)
# Format: cell-based, human
# Design: key to Inhibition by Analyte IL-1b / Inhibition by Analyte IL-2 / Inhibition by Analyte TNF / Inhibition by Analyte IP-10 / Inhibition by Analyte IL-10: X = a hit with significant activation or inhibition of relevant cytokine release
# Details: CD3/CD28 (TransAct) activated PBMCs; FIG. 1
# Procedure: as §1, §2, §3, §4, §5, §6, §7, §8
row,Molecule,release of TNF-alpha from activated PBMCs
1,SEQ ID NO: 33885: Target Protein validated as an anti-inflammatory immune modulator (VAEPRRGHLKAALASLGGAAPAAATNGSPPLFK; listed as Homo sapiens),significantly blocks

# Same assay, conditions: CD3/CD28 (TransAct) activated PBMCs; FIG. 2
row,Molecule,release of IL-1b from activated PBMCs
1,SEQ ID NO: 33885: Target Protein validated as an anti-inflammatory immune modulator (VAEPRRGHLKAALASLGGAAPAAATNGSPPLFK; listed as Homo sapiens),does not block

# Same assay, conditions: peptide applied with anti-CD3/CD28 T-cell activator; supernatant CBA after 24 hours
Molecule,Inhibition by Analyte IL-1b,Inhibition by Analyte IL-2,Inhibition by Analyte IP-10,Inhibition by Analyte TNF,Inhibition by Analyte IL-10
"SEQ ID NO: 35373: target protein of the Sequence Listing, applied as peptide to PBMCs (LDFIRAFLLLLVASVPGKIGSQNLTAQRPPVATSFLQMESSEPTVRK; listed as Homo sapiens)",X,X,X,X,–
"SEQ ID NO: 33934: target protein of the Sequence Listing, applied as peptide to PBMCs (MSFDHPEKNGPWPADPINLPSHG; listed as Homo sapiens)",–,X,–,X,–
"SEQ ID NO: 37363: target protein of the Sequence Listing, applied as peptide to PBMCs (MGGKSWLFFYSLVFCALLPLPRREDPFKLF; listed as Homo sapiens)",X,–,–,–,–
"SEQ ID NO: 35558: target protein of the Sequence Listing, applied as peptide to PBMCs (MTAFGLGIPTFLVMQPSGSQPRFPALTQNGVALVRTPLTSVYLRVRICRVLGPRSQPS; listed as Homo sapiens)",X,–,–,X,–
SEQ ID NO: 33885: Target Protein validated as an anti-inflammatory immune modulator (VAEPRRGHLKAALASLGGAAPAAATNGSPPLFK; listed as Homo sapiens),X,X,X,X,–
"SEQ ID NO: 37394: target protein of the Sequence Listing, applied as peptide to PBMCs (MESRTLLLLFSGAVALIQTWADYNYNQGRNDLIFTLQLWKRQ; listed as Homo sapiens)",X,–,–,–,–
"SEQ ID NO: 37043: target protein of the Sequence Listing, applied as peptide to PBMCs (MSEVATLLFSQTALASLESVHPAGHKLWMRNLRQVTSP; listed as Homo sapiens)",–,X,–,X,–
"SEQ ID NO: 34837: target protein of the Sequence Listing, applied as peptide to PBMCs (MRSPLSASALLLWSSSVARAFSSPSLLMAVPSPTCSRY; listed as Homo sapiens)",X,–,X,X,X
